# Reference: patent publication US9499551B2, “Substituted pyrrolo[2,3-b]pyridines for treating cancer or inflammatory diseases” (Confluence Life Sciences, Inc., priority 2014, dated 2016)
# What was measured:
# [1] = system: IL-6 Production in Human Peripheral Blood Mononuclear Cells (PBMC); assay: LPS stimulated IL-6 production in PBMC cells; format: cell-based; conditions: read-out: IL-6 Production Inhibition IC50
# Description: LPS Stimulated IL-6 Production in PBMC Cells:
# Lipopolysaccharide (LPS) stimulated IL-6 Production in Human Peripheral Blood Mononuclear Cells (PBMC): The cellular efficacy of compound candidates is determined using peripheral blood mononuclear cells purified from human whole blood, based upon the methods of Burnette et al. (2009) Pharmacology, 84:42-60. PBMC produce a number of cytokines (IL6, IL8, IL1β and TNFα) in response to stimulation with LPS. To induce the production of inflammatory mediators, PBMC are plated at a final concentration of 2×10^5 cells/well in a 96 well flat bottom plate in DMEM medium supplemented with 10% fetal bovine serum, 100 units/ml penicillin and 100 μg/ml streptomycin (Gibco BRL Life Technologies). Cells are treated with or without inhibitors for 1-3 hrs then stimulated with 100 ng/ml LPS (serotype 011:B4, Sigma) for an additional 3 hrs at 37° C. with 5% CO2. The supernatants are removed and stored at −20° C. until they are to be assayed. The levels of inflammatory mediators are determined using commercial MSD cytokine kits (Meso Scale Discovery) as per the manufacturer's instructions. Standard curves are based on 7 steps of 4× serial dilutions, with a wide dynamic range of 10000 pg/ml to 2.4 pg/ml, and a blank. Lower limit of detection (LLOD) is calculated at the commonly used 3× the standard deviation of the blank.
# TAK1-TAB1 = target: T1, TAK1-TAB1 (Homo sapiens, UniProt O43318); assay: TAK1-TAB1 binding inhibitory potency (LanthaScreen competitive binding assay, kinase tracer-236); conditions: 10 nM TAK1-TAB1, 100 nM kinase tracer-236; read-out: TAK1-Tab Inhibition IC50
# T1 sequence (O43318 with tags, fused parts or gaps limits assumed): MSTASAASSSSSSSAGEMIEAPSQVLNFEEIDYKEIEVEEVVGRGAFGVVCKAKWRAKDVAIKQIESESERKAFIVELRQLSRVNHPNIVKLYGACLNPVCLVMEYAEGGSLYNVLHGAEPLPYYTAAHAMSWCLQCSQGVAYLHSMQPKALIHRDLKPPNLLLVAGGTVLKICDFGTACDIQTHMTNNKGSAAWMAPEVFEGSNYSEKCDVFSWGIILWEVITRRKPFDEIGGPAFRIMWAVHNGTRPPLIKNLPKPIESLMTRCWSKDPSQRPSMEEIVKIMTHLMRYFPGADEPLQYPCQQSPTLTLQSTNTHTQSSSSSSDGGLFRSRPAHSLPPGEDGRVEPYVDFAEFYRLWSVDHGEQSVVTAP
# In short: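 Compounds were tested for TAK1-TAB1 binding in a 384-well LanthaScreen competitive FRET assay. TAK1-TAB1 (10 nM) and Eu-anti-his antibody (2 nM) were preincubated with compound for two hours before adding 100 nM Alexa Fluor 647 kinase tracer-236. The buffer was 20 mM HEPES pH 7.5, 10 mM MgCl2, 0.01% BSA, 0.0005% Tween-20 and 2% DMSO. IC50 came from 4-parameter logistic fits of emission ratio over an 11-point series from 20 μM to 0.34 nM.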
IC50 (TAK1-TAB1) [nM],Structure (SMILES),IC50 [1] [nM]
≤ 1000,"NC(=O)/C=C/c1c[nH]c2ncc(-c3ccc(C(=O)N4CCCC4)nc3)cc12 [Example 281, (E)-3-(5-(6-(pyrrolidine-1-carbonyl)pyridin-3-yl)-1H-pyrrolo[2,3-b]pyridin-3-yl)acrylamide]",> 1000
≤ 1000,"CC(C)(C)c1cc(-c2cnc3[nH]cc(/C=C/C(N)=O)c3c2)cc(C(C)(C)C)c1 [Example 258, (E)-3-(5-(3,5-di-tert-butylphenyl)-1H-pyrrolo[2,3-b]pyridin-3-yl)acrylamide]",≤ 1000
≤ 1000,"CC(C)(O)c1cccc(-c2cnc3[nH]cc(/C=C/C(N)=O)c3c2)c1 [Example 246, (E)-3-(5-(3-(2-hydroxypropan-2-yl)phenyl)-1H-pyrrolo[2,3-b]pyridin-3-yl)acrylamide]",≤ 1000
≤ 1000,"CCOCCN1CCN(c2cnc3[nH]cc(/C=C/C(N)=O)c3c2)CC1 [Example 271, (E)-3-(5-(4-(2-ethoxyethyl)piperazin-1-yl)-1H-pyrrolo[2,3-b]pyridin-3-yl)acrylamide]",≤ 1000
≤ 1000,"NC(=O)/C=C/c1c[nH]c2ncc(-c3ccc(N4CCCC4)nc3)cc12 [Example 250, (E)-3-(5-(6-(pyrrolidin-1-yl)pyridin-3-yl)-1H-pyrrolo[2,3-b]pyridin-3-yl)acrylamide]",≤ 1000
> 1000,"CC(C)(C)C(=O)NC1CN(c2cnc3[nH]cc(/C=C/C(N)=O)c3c2)C1 [Example 282, (E)-3-(5-(3-pivalamidoazetidin-1-yl)-1H-pyrrolo[2,3-b]pyridin-3-yl)acrylamide]",> 1000
≤ 1000,"NC(=O)/C=C/c1c[nH]c2ncc(-c3ccc(C(F)(F)F)cc3)cc12 [Example 252, (E)-3-(5-(4-(trifluoromethyl)phenyl)-1H-pyrrolo[2,3-b]pyridin-3-yl)acrylamide]",≤ 1000
≤ 1000,"NC(=O)/C=C/c1c[nH]c2ncc(N3CCN(C(=O)c4ccccc4)CC3)cc12 [Example 267, (E)-3-(5-(4-benzoylpiperazin-1-yl)-1H-pyrrolo[2,3-b]pyridin-3-yl)acrylamide]",> 1000
> 1000,"NC(=O)/C=C\C(=O)Nc1c[nH]c2ncc(-c3ccccc3)cc12 [Example 234, N^1--(5-phenyl-1H-pyrrolo[2,3-b]pyridin-3-yl)maleamide]",≤ 1000
≤ 1000,"NC(=O)/C=C/c1c[nH]c2ncc(-c3ccccc3)nc12 [Example 4, (E)-3-(2-Phenyl-5H-pyrrolo[2,3-b]pyrazin-7-yl)acrylamide]",≤ 1000

# Second part, the compound before the results:
Structure (SMILES),IC50 (TAK1-TAB1) [nM],IC50 [1] [nM]
"N#Cc1ccc(-c2cnc3[nH]cc(/C=C/C(N)=O)c3c2)cn1 [Example 261, (E)-3-(5-(6-cyanopyridin-3-yl)-1H-pyrrolo[2,3-b]pyridin-3-yl)acrylamide]",≤ 1000,≤ 1000
"NC(=O)/C=C/c1c[nH]c2ncc(-c3cccnc3)cc12 [Example 13, 3-(5-Pyridin-3-yl-1H-pyrrolo[2,3-b]pyridin-3-yl)-acrylamide]",≤ 1000,≤ 1000
"C[C@H](O)C(=O)N1CCN(c2cnc3[nH]cc(/C=C/C(N)=O)c3c2)CC1 [Example 276, (S,E)-3-(5-(4-(2-hydroxypropanoyl)piperazin-1-yl)-1H-pyrrolo[2,3-b]pyridin-3-yl)acrylamide]",≤ 1000,> 1000
"COc1ccc(-c2cnc3[nH]cc(/C=C/C(N)=O)c3c2)cc1 [Example 12, (E)-3-(5-(4-Methoxyphenyl)-1H-pyrrolo[2,3-b]pyridin-3-yl)acrylamide]",≤ 1000,≤ 1000
"N#Cc1ccc(-c2cnc3[nH]cc(/C=C/C(N)=O)c3c2)cc1 [Example 17, 3-[5-(4-Cyano-phenyl)-1H-pyrrolo[2,3-b]pyridin-3-yl]-acrylamide]",≤ 1000,≤ 1000
"CC(C)N1CCN(C(=O)c2ccc(-c3cnc4[nH]cc(/C=C/C(N)=O)c4c3)cc2)CC1 [Example 268, (E)-3-(5-(4-(4-isopropyl-piperazine-1-carbonyl)phenyl)-1H-pyrrolo[2,3-b]pyridin-3-yl)acrylamide]",≤ 1000,≤ 1000
"NC(=O)/C=C/c1c[nH]c2ncc(-c3ccc(C(=O)NC4CC4)cc3)cc12 [Example 270, (E)-4-(3-(3-amino-3-oxoprop-1-en-1-yl)-1H-pyrrolo[2,3-b]pyridin-5-yl)-N-cyclopropyl-benzamide]",≤ 1000,> 1000
"CC(C)(O)c1ccc(-c2cnc3[nH]cc(/C=C/C(N)=O)c3c2)cc1 [Example 247, (E)-3-(5-(4-(2-hydroxypropan-2-yl)phenyl)-1H-pyrrolo[2,3-b]pyridin-3-yl)acrylamide]",≤ 1000,≤ 1000
"NC(=O)/C=C/c1c[nH]c2ncc(-c3ccc(F)cc3F)cc12 [Example 2, (E)-3-(5-(2,4-Difluorophenyl)-1H-pyrrolo[2,3-b]pyridin-3-yl)acrylamide]",≤ 1000,≤ 1000
"C[C@@H](O)CNC(=O)c1ccc(-c2cnc3[nH]cc(/C=C/C(N)=O)c3c2)cc1 [Example 294, (R,E)-4-(3-(3-amino-3-oxoprop-1-en-1-yl)-1H-pyrrolo[2,3-b]pyridin-5-yl)-N-(2-hydroxypropyl) benzamide]",≤ 1000,> 1000
"CC(=O)/C=C/C(=O)Nc1c[nH]c2ncc(-c3ccccc3)cc12 [Example 240, (E)-4-oxo-N-(5-phenyl-1H-pyrrolo[2,3-b]pyridin-3-yl)pent-2-enamide]",≤ 1000,≤ 1000
"Cc1cc(-c2cnc3[nH]cc(/C=C/C(N)=O)c3c2)cc(C(C)(C)C)c1 [Example 256, (E)-3-(5-(3-(tert-butyl)-5-methylphenyl)-1H-pyrrolo[2,3-b]pyridin-3-yl)acrylamide]",≤ 1000,≤ 1000
"CC(=O)c1ccc(-c2cnc3[nH]cc(/C=C/C(N)=O)c3c2)cc1 [Example 245, (E)-3-(5-(4-acetylphenyl)-1H-pyrrolo[2,3-b]pyridin-3-yl)acrylamide]",≤ 1000,≤ 1000
"N#Cc1ccc(-c2cnc3[nH]cc(/C=C/C(N)=O)c3n2)cc1 [Example 249, (E)-3-(2-(4-cyanophenyl)-5H-pyrrolo[2,3-b]pyrazin-7-yl)acrylamide]",≤ 1000,≤ 1000
"CC(C)(O)CN1CCN(c2cnc3[nH]cc(/C=C/C(N)=O)c3c2)CC1 [Example 289, (E)-3-(5-(4-(2-hydroxy-2-methylpropyl)piperazin-1-yl)-1H-pyrrolo[2,3-b]pyridin-3-yl)acrylamide]",≤ 1000,> 1000
"CC(C)NC(=O)c1ccc(-c2cnc3[nH]cc(/C=C/C(N)=O)c3c2)cn1 [Example 280, (E)-5-(3-(3-amino-3-oxoprop-1-en-1-yl)-1H-pyrrolo[2,3-b]pyridin-5-yl)-N-isopropyl-picolinamide]",≤ 1000,≤ 1000
"CC(C)(C)OC(=O)N1CCN(c2cnc3[nH]cc(/C=C/C(N)=O)c3c2)CC1 [Example 266, (E)-tert-butyl 4-(3-(3-amino-3-oxoprop-1-en-1-yl)-1H-pyrrolo[2,3-b]pyridin-5-yl)piperazine-1-carboxylate]",≤ 1000,≤ 1000
"CC(C)Oc1ccc(-c2cnc3[nH]cc(/C=C/C(N)=O)c3n2)cn1 [Example 284, (E)-3-(2-(6-isopropoxypyridin-3-yl)-5H-pyrrolo[2,3-b]pyrazin-7-yl)acrylamide]",≤ 1000,≤ 1000
"CC(C)(C)OC(=O)NC1CN(c2cnc3[nH]cc(/C=C/C(N)=O)c3c2)C1 [Example 269, (E)-tert-butyl(1-(3-(3-amino-3-oxoprop-1-en-1-yl)-1H-pyrrolo[2,3-b]pyridin-5-yl)azetidin-3-yl)carbamate]",≤ 1000,≤ 1000
"CC(C)(O)Cn1cc(-c2cnc3[nH]cc(/C=C/C(N)=O)c3c2)ccc1=O [Example 292, (E) -3-(5-(1-(2-hydroxy-2-methylpropyl)-6-oxo-1,6-dihydropyridin-3-yl)-1H-pyrrolo[2,3-b]pyridin-3-yl)acrylamide]",≤ 1000,> 1000
"N#Cc1cccc(-c2cnc3[nH]cc(/C=C/C(N)=O)c3c2)c1 [Example 18, 3-[5-(3-Cyano-phenyl)-1H-pyrrolo[2,3-b]pyridin-3-yl]-acrylamide]",≤ 1000,≤ 1000
